Experimental findings from paper doi:10.1101/2022.12.30.522309v1 (biorxiv, 2022) are described below.

The target of the test is T1, human FFA2R (Homo sapiens, UniProt O15552).
T1 sequence (O15552 1-330): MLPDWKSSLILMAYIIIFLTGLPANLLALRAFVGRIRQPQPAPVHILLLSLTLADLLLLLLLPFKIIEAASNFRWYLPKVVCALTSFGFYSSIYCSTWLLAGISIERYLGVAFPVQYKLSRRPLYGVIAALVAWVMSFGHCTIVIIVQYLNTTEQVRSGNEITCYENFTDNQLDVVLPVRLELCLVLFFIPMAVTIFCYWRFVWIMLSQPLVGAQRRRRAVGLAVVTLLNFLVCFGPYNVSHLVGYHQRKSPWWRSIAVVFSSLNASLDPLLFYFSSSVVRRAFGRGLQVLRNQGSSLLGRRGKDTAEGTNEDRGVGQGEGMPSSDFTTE
Nature of the test: inhibition of forskolin-induced cAMP, LANCE Ultra TR-FRET, HEK293. The class given is cell-based. (Time-resolved FRET reads energy transfer from a long-lived donor to a nearby acceptor.)

Broadly, the EC50 is the concentration that produces a half-maximal response. Consider `CC(=O)CC(=O)O` [acetoacetate], for which the EC50 worked out at 1240 µM.
